One assay addresses CK1ε (Homo sapiens (Human), UniProt P49674). Briefly: CK1ε kinase assay (Caliper LABCHIP electrophoretic separation of fluoresceinated peptide substrate and product). The note with it: 200 pM enzyme, 50 μM ATP, 22 hours at room temperature. The assay is classed as biochemical. In short, it runs like this:
(§1)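 Each reaction was incubated 22 hours at room temperature and terminated with EDTA. Read-out was microfluidic electrophoretic separation of fluoresceinated substrate and phospho-product.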

For the next assay, the target named is CK1δ (Homo sapiens (Human), UniProt P48730). Briefly: CK1δ kinase assay (Caliper LABCHIP electrophoretic separation of fluoresceinated peptide substrate and product). It is filed as biochemical. As to conditions: 200 pM enzyme, 50 μM ATP, 22 hours at room temperature. In short, it runs like this: as §1
Sequence of CK1δ (P48730 whole entry): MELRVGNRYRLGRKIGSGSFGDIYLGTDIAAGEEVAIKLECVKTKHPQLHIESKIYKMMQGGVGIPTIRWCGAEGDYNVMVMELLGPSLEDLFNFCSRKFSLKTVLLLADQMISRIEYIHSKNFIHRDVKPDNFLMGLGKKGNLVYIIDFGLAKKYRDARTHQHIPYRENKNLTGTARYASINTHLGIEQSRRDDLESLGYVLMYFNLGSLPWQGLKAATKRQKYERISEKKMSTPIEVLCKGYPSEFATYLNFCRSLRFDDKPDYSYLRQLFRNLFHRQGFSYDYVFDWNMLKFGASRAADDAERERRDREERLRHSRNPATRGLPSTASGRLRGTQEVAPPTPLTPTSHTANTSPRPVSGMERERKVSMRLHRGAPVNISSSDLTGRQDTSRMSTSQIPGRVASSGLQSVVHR

Each structure is given as a SMILES string. pIC50: −log10 of the molar value.

Data on 27 molecules can be found in patent US9556179B2 (BRISTOL-MYERS SQUIBB COMPANY, priority 2012, dated 2017).

Broadly, the pIC50 is the negative decadic logarithm of the IC50, by convention in mol/L. Higher therefore signals a low IC50.

Sequence of CK1ε (P49674 whole entry): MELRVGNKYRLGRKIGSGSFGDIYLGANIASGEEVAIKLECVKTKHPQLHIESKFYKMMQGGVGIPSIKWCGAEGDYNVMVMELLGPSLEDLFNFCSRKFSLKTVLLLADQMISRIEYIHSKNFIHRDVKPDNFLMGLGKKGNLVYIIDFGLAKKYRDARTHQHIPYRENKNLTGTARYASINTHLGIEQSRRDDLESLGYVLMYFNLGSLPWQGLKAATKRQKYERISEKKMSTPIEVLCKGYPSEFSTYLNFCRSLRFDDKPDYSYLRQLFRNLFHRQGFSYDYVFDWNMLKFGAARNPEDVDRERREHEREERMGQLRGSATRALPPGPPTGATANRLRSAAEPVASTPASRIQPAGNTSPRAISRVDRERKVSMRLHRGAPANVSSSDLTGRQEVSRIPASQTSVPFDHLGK

Consider `Cc1nc(-c2ccc(F)cc2)c(-c2ccc3nc(NC(=O)c4c[nH]c5ccncc45)cn3n2)n1C` [Compound 334, N-(6-(4-(4-fluorophenyl)-1,2-dimethyl-1H-imidazol-5-yl)imidazo[1,2-b]pyridazin-2-yl)-1H-pyrrolo[3,2-c] pyridine-3-carboxamide], for which the pIC50 was 9.02 on CK1ε and 9.08 against CK1δ.
On the same counts, the results for `Cc1nc(-c2ccc(F)cc2)c(-c2ccc3nc(NC(=O)c4ccns4)cn3n2)n1C` [Compound 335, N-(6-(4-(4-fluorophenyl)-1,2-dimethyl-1H-imidazol-5-yl)imidazo[1,2-b]pyridazin-2-yl)-5-isothiazolecarboxamide] are 8.59 and 9.32.
For `Cc1nc(-c2ccc(F)cc2)c(-c2ccc3nc(NC(=O)c4ccc5ncccc5c4)cn3n2)n1C` [Compound 336, N-(6-(4-(4-fluorophenyl)-1,2-dimethyl-1H-imidazol-5-yl)imidazo[1,2-b]pyridazin-2-yl)-6-quinolinecarboxamide], in that order: 8.66 and 9.29.
For `Cc1nc(-c2ccc(F)cc2)c(-c2ccc3nc(NC(=O)c4ccc5cccnc5c4)cn3n2)n1C` [Compound 337, N-(6-(4-(4-fluorophenyl)-1,2-dimethyl-1H-imidazol-5-yl)imidazo[1,2-b]pyridazin-2-yl)-7-quinolinecarboxamide], in that order: 8.59 and 9.57.
Take `Cc1c[nH]c(C(=O)Nc2cn3nc(-c4c(-c5ccc(F)cc5)nc(C)n4C)ccc3n2)c1` [Compound 338, N-(6-(4-(4-fluorophenyl)-1,2-dimethyl-1H-imidazol-5-yl)imidazo[1,2-b]pyridazin-2-yl)-4-methyl-1H-pyrrole-2-carboxamide]: the pIC50 against CK1ε is 9.11; at CK1δ it was 9.43.
With `Cc1nc(-c2ccc(F)cc2)c(-c2ccc3nc(NC(=O)c4ccc5cnccc5c4)cn3n2)n1C` [Compound 339, N-(6-(4-(4-fluorophenyl)-1,2-dimethyl-1H-imidazol-5-yl)imidazo[1,2-b]pyridazin-2-yl)isoquinoline-6-carboxamide], the pIC50 against CK1ε is 8.79; against CK1δ, 9.73.
For the molecule `Cc1nc(-c2ccc(F)cc2)c(-c2ccc3nc(NC(=O)c4snnc4-c4ccccc4)cn3n2)n1C` [Compound 340, N-(6-(4-(4-fluorophenyl)-1,2-dimethyl-1H-imidazol-5-yl)imidazo[1,2-b]pyridazin-2-yl)-4-phenyl-1,2,3-thiadiazole-5-carboxamide], the pIC50 against CK1ε is 8.20; on CK1δ, 9.40.
For `Cc1nc(-c2ccc(F)cc2)c(-c2ccc3nc(NC(=O)c4cc5c(F)cccc5[nH]4)cn3n2)n1C` [Compound 341, 4-fluoro-N-(6-(4-(4-fluoro-phenyl)-1,2-dimethyl-1H-imidazol-5-yl)imidazo[1,2-b]pyridazin-2-yl)-1H-indole-2-carboxamide], in that order: 8.05 and 8.88.
For `Cc1nc(-c2ccc(F)cc2)c(-c2ccc3nc(NC(=O)c4c[nH]c5ccccc45)cn3n2)n1C` [Compound 342, N-(6-(4-(4-fluorophenyl)-1,2-dimethyl-1H-imidazol-5-yl)imidazo[1,2-b]pyridazin-2-yl)-1H-indole-3-carboxamide], in that order: 8.31 and 8.85.
With `Cc1nc(-c2ccc(F)cc2)c(-c2ccc3nc(NC(=O)c4c[nH]c5ncccc45)cn3n2)n1C` [Compound 343, N-(6-(4-(4-fluorophenyl)-1,2-dimethyl-1H-imidazol-5-yl)imidazo[1,2-b]pyridazin-2-yl)-1H-pyrrolo[2,3-b] pyridine-3-carboxamide], the pIC50 was 8.66 against CK1ε and 9.04 on CK1δ.
As to `Cc1nc(-c2ccc(F)cc2)c(-c2ccc3nc(NC(=O)c4cccc5cccnc45)cn3n2)n1C` [Compound 344, N-(6-(4-(4-fluorophenyl)-1,2-dimethyl-1H-imidazol-5-yl)imidazo[1,2-b]pyridazin-2-yl)-8-quinolinecarboxamide], the pIC50 was 6.95 against CK1ε and 7.84 against CK1δ.
For `COc1cccc2[nH]c(C(=O)Nc3cn4nc(-c5c(-c6ccc(F)cc6)nc(C)n5C)ccc4n3)cc12` [Compound 347, N-(6-(4-(4-fluorophenyl)-1,2-dimethyl-1H-imidazol-5-yl)imidazo[1,2-b]pyridazin-2-yl)-4-methoxy-1H-indole-2-carboxamide], in that order: 8.92 and 9.42.
On the same counts, the results for `Cc1nc(-c2ccc(F)cc2)c(-c2ccc3nc(NC(=O)c4cc[nH]c4)cn3n2)n1C` [Compound 348, N-(6-(4-(4-fluorophenyl)-1,2-dimethyl-1H-imidazol-5-yl)imidazo[1,2-b]pyridazin-2-yl)-1H-pyrrole-3-carboxamide] are 8.24 and 8.79.
Consider `Cc1nc(-c2ccc(F)cc2)c(-c2ccc3nc(NC(=O)c4ccnn4C)cn3n2)n1C` [Compound 352, N-(6-(4-(4-fluorophenyl)-1,2-dimethyl-1H-imidazol-5-yl)imidazo[1,2-b]pyridazin-2-yl)-1-methyl-1H-pyrazole-5-carboxamide], for which the values for the negative logarithm of the IC50 (pIC50) against CK1ε and on CK1δ were 8.49 and 9.23, respectively.
For `CC(=O)N1CCCC1C(=O)Nc1cn2nc(-c3c(-c4ccc(F)cc4)nc(C)n3C)ccc2n1` [Compound 353, 1-acetyl-N-(6-(4-(4-fluoro-phenyl)-1,2-dimethyl-1H-imidazol-5-yl)imidazo[1,2-b]pyridazin-2-yl)-L-pro-linamide], in that order: 7.13 and 8.31.
For `Cc1nc(-c2ccc(F)cc2)c(-c2ccc3nc(NC(=O)c4ccn(C)n4)cn3n2)n1C` [Compound 354, N-(6-(4-(4-fluorophenyl)-1,2-dimethyl-1H-imidazol-5-yl)imidazo[1,2-b]pyridazin-2-yl)-1-methyl-1H-pyrazole-3-carboxamide], in that order: 7.97 and 8.85.
Consider `Cc1nc(-c2ccc(F)cc2)c(-c2ccc3nc(NC(=O)c4cocn4)cn3n2)n1C` [Compound 355, N-(6-(4-(4-fluorophenyl)-1,2-dimethyl-1H-imidazol-5-yl)imidazo[1,2-b]pyridazin-2-yl)-1,3-oxazole-4-carboxamide], for which the negative-log IC50 (pIC50) was 7.41 against CK1ε and 8.42 at CK1δ.
Consider `Cc1nc(-c2ccc(F)cc2)c(-c2ccc3nc(NC(=O)c4ccc(C#N)cc4)cn3n2)n1C` [Compound 356, 4-cyano-N-(6-(4-(4-fluoro-phenyl)-1,2-dimethyl-1H-imidazol-5-yl)imidazo[1,2-b]pyridazin-2-yl)benzamide], for which the pIC50 on CK1ε was 8.72; at CK1δ, 9.29.
As for `Cc1nc(-c2ccc(F)cc2)c(-c2ccc3nc(NC(=O)c4cccn4C)cn3n2)n1C` [Compound 357, N-(6-(4-(4-fluorophenyl)-1,2-dimethyl-1H-imidazol-5-yl)imidazo[1,2-b]pyridazin-2-yl)-1-methyl-1H-pyrrole-2-carboxamide], the pIC50 at CK1ε was 7.75; against CK1δ it was 8.83.
On the same counts, the results for `Cc1nc(-c2ccc(F)cc2)c(-c2ccc3nc(NC(=O)c4ccc[nH]4)cn3n2)n1C` [Compound 358, N-(6-(4-(4-fluorophenyl)-1,2-dimethyl-1H-imidazol-5-yl)imidazo[1,2-b]pyridazin-2-yl)-1H-pyrrole-2-carbox-amide] are 8.41 and 9.27.
For `Cc1nc(-c2ccc(F)cc2)c(-c2ccc3nc(NC(=O)c4cnn(C)c4)cn3n2)n1C` [Compound 359, N-(6-(4-(4-fluorophenyl)-1,2-dimethyl-1H-imidazol-5-yl)imidazo[1,2-b]pyridazin-2-yl)-1-methyl-1H-pyrazole-4-carboxamide], in that order: 8.50 and 9.22.
On the same counts, the results for `Cc1nocc1C(=O)Nc1cn2nc(-c3c(-c4ccc(F)cc4)nc(C)n3C)ccc2n1` [Compound 361, N-(6-(4-(4-fluorophenyl)-1,2-dimethyl-1H-imidazol-5-yl)imidazo[1,2-b]pyridazin-2-yl)-3-methyl-4-isoxazole-carboxamide] are 5.90 and 7.13.
As for `Cc1nc(-c2ccc(F)cc2)c(-c2ccc3nc(NC(=O)c4cn(C)cn4)cn3n2)n1C` [Compound 362, N-(6-(4-(4-fluorophenyl)-1,2-dimethyl-1H-imidazol-5-yl)imidazo[1,2-b]pyridazin-2-yl)-1-methyl-1H-imidazole-4-carboxamide], the pIC50 against CK1ε is 7.06; at CK1δ it was 8.20.
On the same counts, the results for `CC(=O)N1CCCC1C(=O)Nc1cn2nc(-c3c(-c4ccc(F)cc4)nc(C)n3C)ccc2n1` (stereo not drawn) [Compound 363, 1-acetyl-N-(6-(4-(4-fluoro-phenyl)-1,2-dimethyl-1H-imidazol-5-yl)imidazo[1,2-b]pyridazin-2-yl)prolinamide] are 7.58 and 8.63.
Regarding `Cc1nc(-c2ccc(F)cc2)c(-c2ccc3nc(NC(=O)c4cn[nH]c4)cn3n2)n1C` [Compound 364, N-(6-(4-(4-fluorophenyl)-1,2-dimethyl-1H-imidazol-5-yl)imidazo[1,2-b]pyridazin-2-yl)-1H-pyrazole-4-carboxamide], the pIC50 on CK1ε was 8.40; on CK1δ it was 9.25.
Turning to `Cc1oncc1C(=O)Nc1cn2nc(-c3c(-c4ccc(F)cc4)nc(C)n3C)ccc2n1` [Compound 365, N-(6-(4-(4-fluorophenyl)-1,2-dimethyl-1H-imidazol-5-yl)imidazo[1,2-b]pyridazin-2-yl)-5-methyl-4-isoxazole-carboxamide], the negative-log IC50 (pIC50) on CK1ε is 5.96; at CK1δ it was 6.99.
For `Cc1nc(-c2ccc(F)cc2)c(-c2ccc3nc(NC(=O)C4CCC(=O)N4)cn3n2)n1C` (stereo not drawn) [Compound 366, N-(6-(4-(4-fluorophenyl)-1,2-dimethyl-1H-imidazol-5-yl)imidazo[1,2-b]pyridazin-2-yl)-5-oxoprolinamide], in that order: 7.60 and 8.76.
